Results on 4 compounds are retold here after PMC11369432, “Study on the uptake of Gastrodin in the liver” (Heliyon, 2024).

Where “and” joins values, the source holds several entries; their conditions need not be identical. Equal values may be shown once. Where a name gives a salt, the structure may show the parent alone.

In data set [1] the test system is OCTs. The experiment in a line: Check of the OCTs inhibitor in rats with metformin hydrochloride as substrate. Type of data set: in vivo. An excerpt: (§1) Selecting suitable substrates and inhibitors of OATPs and OCTs is crucial for the experiment. Therefore, our team also used OATPs and OCTs inhibitors. Based on the relevant literature, metformin hydrochloride was selected as the substrate of OCTs, and sodium sulfobromophthalide (BSP) was selected as the substrate of OATPs. […] Most of the previous studies used RIF as an inhibitor of OATPs and epinephrine as an inhibitor of OCTs. We detected drug concentration in blood samples and in the liver of rats. The concentration of metformin hydrochloride was detected by HPLC, and BSP was measured by enzyme-linked immunosorbent assay (ELISA).

A short description of data set [2]: Gastrodin plasma and liver concentrations and Kp in rats, control group (no inhibitor). Type of data set: in vivo, Sprague-Dawley (SD) rats. An excerpt: (§2) The transporters involved in liver transport mainly include organic anion transport peptides (Oatps) and organic cation transporters (Octs), and these two transporters are most expressed in the liver. Therefore, this study chose Oatps and Octs as the research objects. Transport proteins affect drug efficacy and toxicity, the liver is the main organ for the metabolism of substances. […] Using the method of rats in vivo, and choose organic anion transfer peptide Oatps and organic cation transporter Octs inhibitors for the probe, after the transporters are suppressed, intravenous drip Gastrodine, drug concentrations reach homeostasis in blood drug concentration, drug absorption rate and elimination rate balance, illustrate the liver intake transporters saturated. Using HPLC determination of drug concentration in liver and blood at this time the ratio of the Kp (Kp = Css/Css drug concentration of liver blood drug concentration), and under normal circumstances (i.e., without giving inhibitors) compared to Kp, if Kp decrescent, namely that the drug transporters of the substrate. This study explore the intrinsic relationship between the uptake of Gastrodin in rat liver and the organic anion transport peptide Oatps and organic cation transporter Octs, thus preliminarily elucidating the molecular mechanism of Gastrodin uptake in the liver, provide theoretical basis for the safety of clinical combination therapy [[10], [11], [12]].
(§3) The use of experimental animals was approved by the Ethics Committee of Southwest University (Chongqing, China). We strictly followed the National and Institutional guidelines for animal protection and welfare. In total, 18 adult male Sprague-Dawley (SD) rats (SPF, weight: 150 ± 20g) were obtained from the Center of Experimental Animals, Sichuan Province People's Hospital. The rats were kept at room temperature (25 °C) with free access to food and water. They were allowed to adapt to the new environment for one week before starting induction and treatment. Following acclimatization, the experimental rats were randomly divided into three groups (n = 6) as follows: Control group (treated with Gastrodin), ADR group (treated with Gastrodin and adrenalone), and RIF group (treated with Gastrodin and rifampicin).
(§4) To clarify the role of hepatic transport proteins, the concentration of Gastrodin chosen for this experiment was 569 mg kg^−1 (converted from the concentration in mice: rat dose (mg·kg^−1) = mouse dose (mg·kg^−1)/1.44), based on the results of previous studies. An equal dose of Gastrodin was injected before intravenous drip as a loading dose, to ensure that the steady-state blood concentration (Css) of Gastrodin was reached and the transporter protein was saturated by 300 min of intravenous drip. Then, the volume of Gastrodin was computed according to the following formula: drop volume = drop speed (4 μL h^−1 g^−1) × time × weight.
(§5) Gastrodin solution: 1138.9 mg of Gastrodin extract was added to a 10 mL volumetric flask. Physiological saline was added and diluted to prepare a solution with a concentration of 113.89 mg mL^−1. Then, the solution was frozen and stored (administered at 1 mL·200g ^−1 i.v.).
The rats were fasted for 12 h before the experiment. They had free access to water. The rats were regularly weighed before the initiation of the experiment. The control group first received Gastrodin solution (569 mg kg^−1) through the caudal vein as a loading dose, followed by the caudal injection of a Gastrodin solution (569 mg kg^−1) at a rate of 4 μg h^−1·g^−1. Each rat of the RIF group was given rifampicin 2 mL·200 g^−1 via oral gavage and 1h later 569 mg kg^−1 of Gastrodin was injected. Likewise, the ADR group was injected with adrenalone (0.5 mL·200 g^−1) via the caudal vein, and 0.5 h later 569 mg kg^−1 of Gastrodin was injected. […]

Data set [3] in a line: Stability of Gastrodin solution (room temperature, repeated freeze-thaw). Conditions: Gastrodin solution stored at −20 °C. The class given is physicochemical. On the procedure: To verify whether the sample processing and detection methods were stable, we examined both their room temperature stability and their repeated freeze-thaw stability.
Three solutions containing 50 mg mL^−1, 100 mg mL^1, and 500 mg mL^−1 of Gastrodin were first prepared and stored at room temperature. This was then measured every 6 h. Finally, the RSD was calculated, which was examined for its room temperature stability.
Three solutions of the same concentration were prepared as described above and tested immediately after preparation. They were then stored at −20 °C for 21 h, removed to allow thawing, and left at room temperature for 3 h before assay. The test was continued at a low temperature and the RSD was calculated after repeating the assay three times to investigate its repeated freeze-thaw stability.

Details of data set [4]: method as in doi:10.4103/pm.pm_307_19. The settings on record: mice, different doses; conforms to a two-compartment model; cited from earlier work.
In data set [5] the test system is OATPs. In words: Hepatic uptake of Gastrodin in rats after the OATPs inhibitor rifampicin (RIF group). Type of data set: in vivo, Sprague-Dawley (SD) rats.
Text: as §2, §3, §4, §5
Rifampicin (RIF) solution: 90 mg of rifampicin was precisely weighed. Then, 30 mL saline was added to prepare 3 mg mL^−1 solution (administered at 2 mL·200 g ^−1 i.g.).
(§6) The rats were fasted for 12 h before the experiment. They had free access to water. The rats were regularly weighed before the initiation of the experiment. The control group first received Gastrodin solution (569 mg kg^−1) through the caudal vein as a loading dose, followed by the caudal injection of a Gastrodin solution (569 mg kg^−1) at a rate of 4 μg h^−1·g^−1. Each rat of the RIF group was given rifampicin 2 mL·200 g^−1 via oral gavage and 1h later 569 mg kg^−1 of Gastrodin was injected. […]

The subject of data set [6] is OCTs. In words: Hepatic uptake of Gastrodin in rats after the OCTs inhibitor adrenalone (ADR group). Type of data set: in vivo, Sprague-Dawley (SD) rats.
Text: as §2, §3, §4, §5
Adrenalone (ADR) solution: 64 mg of […] was weighed precisely and prepared at 8 mg mL^−1 concentration (administered at 0.5 mL·200 g^−1 i.v.) using 30 % PEG400 as solvent.
as §6

Data set [7] concerns OATPs. In words: Check of the OATPs inhibitor in rats with BSP as substrate. Type of data set: in vivo. The settings on record: dose of 30 mg kg^−1, ELISA.
Text: as §1
(ELISA stands for enzyme-linked immunosorbent assay.)

With `CNCC(=O)c1ccc(O)c(O)c1` [ADR, adrenalone], the “Hepatic transportation of OCTs in rats” value in the data set with OCTs [1] (dose of 20 mg kg^−1, substrate metformin hydrochloride, HPLC) is listed as “inhibited”.

The Kp is tissue or fluid exposure divided by exposure in the circulation. As for `OCc1ccc(O[C@@H]2O[C@H](CO)[C@@H](O)[C@H](O)[C@H]2O)cc1` [GAS, hydroxyl methyl benzene - beta - D - pyran glucoside], the “KP (liver / blood concentration)” value in data set [2] (Control group, single rats, 300 min) is 0.2918 and 0.2172 and 0.0618 and 0.3204 and 0.0919; with OATPs [5] (RIF group, single rats, 300 min), 0.0695 and 0.1237 and 0.0037 and 0.0044 and 0.0041 and 0.0042; in the data set on OCTs [6] (ADR group, single rats, 300 min), 0.0645 and 0.0324 and 0.0463 and 0.0716 and 0.0447 and 0.1550. The “Plasma concentration of GAS, 90min” value was 418.6414 µg/mL and 490.4070 µg/mL and 858.0713 µg/mL and 839.0300 µg/mL and 374.1060 µg/mL and 714.8180 µg/mL in data set [2] (Control group, single rats, Gastrodin 569 mg kg^−1 i.v. loading dose plus i.v. drip, 90 min); 30828.4900 µg/mL and 1684.7620 µg/mL and 8505.0480 µg/mL and 15559.1500 µg/mL and 79163.4800 µg/mL and 26044.6400 µg/mL in the data set on OATPs [5] (RIF group, single rats, rifampicin 2 mL·200 g^−1 i.g. 1 h before Gastrodin 569 mg kg^−1, 90 min); 617.7201 µg/mL and 10576.3600 µg/mL and 1294.1160 µg/mL and 1093.5800 µg/mL and 3877.7610 µg/mL with OCTs [6] (ADR group, single rats, adrenalone 0.5 mL·200 g^−1 i.v. 0.5 h before Gastrodin 569 mg kg^−1, 90 min). The “Plasma concentration of GAS, 180min” value is 296.4502 µg/mL and 450.2900 µg/mL and 241.1238 µg/mL and 473.1890 µg/mL and 388.0036 µg/mL and 943.8820 µg/mL in data set [2] (Control group, single rats, Gastrodin 569 mg kg^−1 i.v. loading dose plus i.v. drip, 180 min); 13840.5600 µg/mL and 8435.3490 µg/mL and 24589.4100 µg/mL and 8312.9910 µg/mL and 20131.4400 µg/mL and 4501.0340 µg/mL with OATPs [5] (RIF group, single rats, rifampicin i.g. 1 h before Gastrodin 569 mg kg^−1, 180 min); 650.1415 µg/mL and 3246.9130 µg/mL and 497.0489 µg/mL and 1215.3470 µg/mL and 1883.7120 µg/mL in the data set with OCTs [6] (ADR group, single rats, adrenalone i.v. 0.5 h before Gastrodin 569 mg kg^−1, 180 min). The “Plasma concentration of GAS, 300min” value in data set [2] (Control group, single rats, Gastrodin 569 mg kg^−1 i.v. loading dose plus i.v. drip, 300 min) is 160.2300 µg/mL and 435.3740 µg/mL and 690.0752 µg/mL and 482.2634 µg/mL and 537.2563 µg/mL and 961.3480 µg/mL; in the data set on OATPs [5] (RIF group, single rats, rifampicin i.g. 1 h before Gastrodin 569 mg kg^−1, 300 min), 2063.3640 µg/mL and 8969.1250 µg/mL and 10985.5800 µg/mL and 9971.0380 µg/mL and 23912.4400 µg/mL; with OCTs [6] (ADR group, single rats, adrenalone i.v. 0.5 h before Gastrodin 569 mg kg^−1, 300 min), 2255.8310 µg/mL and 2303.3090 µg/mL and 659.0208 µg/mL and 643.2905 µg/mL and 1871.4590 µg/mL. The “Liver concentration of GAS” value in data set [2] (Control group, single rats, liver taken at 300 min) is 46.7539 µg/mL and 94.5472 µg/mL and 42.6760 µg/mL and 154.5100 µg/mL and 49.3480 µg/mL and 165.2782 µg/mL; in the data set on OATPs [5] (RIF group, single rats, liver taken at 300 min), 143.4890 µg/mL and 54.8940 µg/mL and 33.3675 µg/mL and 48.7120 µg/mL and 41.0071 µg/mL and 101.5434 µg/mL; in the data set with OCTs [6] (ADR group, single rats, liver taken at 300 min), 25.4541 µg/mL and 73.1891 µg/mL and 106.5988 µg/mL and 47.2096 µg/mL and 28.7519 µg/mL and 290.1262 µg/mL. Moreover, the Kp at 300 min was determined as 0.14 ± 0.127 in data set [2] (male, Sprague-Dawley, rat, liver / blood, intravenous, 569 mg kg^−1, Control group, n = 6); 0.035 ± 0.0508 with OATPs [5] (male, Sprague-Dawley, rat, liver / blood, intravenous, RIF group, n = 6, *p < 0.05 vs Control); 0.0691 ± 0.0444 with OCTs [6] (male, Sprague-Dawley, rat, liver / blood, intravenous, ADR group, n = 6, *p < 0.05 vs Control). In addition, in data set [3], the “Storage time with good stability” value was “at least 3 days”. For the same compound, the Pharmacokinetic profile result in data set [4] is given as “non-linear”. In addition, the “Substrate of OATPs” value with OATPs [5] (concluded from lower KP after OATPs inhibitor, rat in vivo) is given as “likely substrate”. Also, the concentration at 300 min in the data set on OATPs [5] (male, Sprague-Dawley, rat, plasma, intravenous, RIF group, single rats, rifampicin i.g. 1 h before Gastrodin 569 mg kg^−1, 300 min, read-out: Plasma concentration of GAS, 300min) stood at 444 µg/mL; in the data set on OCTs [6] (male, Sprague-Dawley, rat, plasma, iv, ADR group, single rats, adrenalone i.v. 0.5 h before Gastrodin 569 mg kg^−1, 300 min, read-out: Plasma concentration of GAS, 300min) it was 394 µg/mL. Besides, the “Substrate of OCTs” value with OCTs [6] (concluded from lower KP after OCTs inhibitor, rat in vivo) is “likely substrate”. Also, the concentration at 90 min in the data set with OCTs [6] (male, Sprague-Dawley, rat, plasma, iv, ADR group, single rats, adrenalone 0.5 mL·200 g^−1 i.v. 0.5 h before Gastrodin 569 mg kg^−1, 90 min, read-out: Plasma concentration of GAS, 90min) amounted to 762 µg/mL. The concentration at 180 min in the data set with OCTs [6] (male, Sprague-Dawley, rat, plasma, iv, ADR group, single rats, adrenalone i.v. 0.5 h before Gastrodin 569 mg kg^−1, 180 min, read-out: Plasma concentration of GAS, 180min) came to 445 µg/mL.

`CO[C@H]1/C=C/O[C@@]2(C)Oc3c(C)c(O)c4c(O)c(c(/C=N/N5CCN(C)CC5)c(O)c4c3C2=O)NC(=O)/C(C)=C\C=C\[C@H](C)[C@H](O)[C@@H](C)[C@@H](O)[C@@H](C)[C@H](OC(C)=O)[C@@H]1C` [RIF, rifampicin]: the “Hepatic transport of OATPs in rats” value in the data set on OATPs [7] is reported as “inhibited”.

`CN(C)C(=N)N=C(N)N` [metformin hydrochloride]: the “Hepatic concentrations of the drug after OCTs inhibitor” value in the data set with OCTs [1] (rats, OCTs inhibitor given) is on record as “significant reduction”.
